Data from patent US20130005676A1 (UNIVERSITY OF ROCHESTER, priority 2009, published 2013).
Entries after “also recorded” stand apart in the source; their conditions may differ.

How the values were obtained:
[1] = tested on: enzymes involved in extracellular degradation of AMP; experiment: Phosphate production (Malachite Green) in tissue sections from the Zusanli point; format: biochemical, mice; conditions: for dephosphorylation of AMP (phosphate production): inhibitor 500 μM, tissue in 1 mM AMP for 45 min; for rate of phosphate generation: 1 mM added as substrate, n=3
[2] = tested on: mice with inflammatory pain (CFA); experiment: Inflammatory pain (CFA in paw): mechanical allodynia (Von Frey) and thermal hyperalgesia; format: in vivo; conditions: injected in the Zusanli point
Excerpt: Peripheral inflammation was induced by injection of Complete Freud Adjuvant (CFA, mixed with an equal amount of oil, […], Jackson labs) (Raghavendra et al., “Complete Freunds Adjuvant-Induced Peripheral Inflammation Evokes Glial Activation and Proinflammatory Cytokine Expression in the CNS,” Eur. J. Neurosci. 20:467-473 (2004), which is hereby incorporated by reference in its entirety). […] Neuropathic pain was induced by ligation of the sciatic nerve with 4.0 polypropylene suture in mice sedated with ketamine (60 mg/kg, i.p.) and xylazine (10 mg/kg, i.p.) (Bennett et al., “A Peripheral Mononeuropathy in Rat that Produces Disorders of Pain Sensation Like Those Seen in Man,” Pain 33:87-107 (1988); Martucci et al., “The Purinergic Antagonist PPADS Reduces Pain Related Behaviours and Interleukin-1 beta, Interleukin-6, iNOS and nNOS Overproduction in Central and Peripheral Nervous System After Peripheral Neuropathy in Mice,” Pain 137:81-95 (2008), which are hereby incorporated by reference in their entirety).
Mechanical allodynia was evaluated using repeated stimulations with a Von Frey filament exerting 0.02 grams of force onto the plantar surface (Colburn et al., “The Effect of Site and Type of Nerve Injury on Spinal Glial Activation and Neuropathic Pain Behavior,” Exp. Neurol. 157:289-304. (1999), which is hereby incorporated by reference in its entirety). The percentage of negative responses of a total of 10 trials was calculated for each foot. Thermal hyperalgesia was assessed using an Analgesymeter (Ugo Basile, Comerio, Italy) (Stein et al., “Intrinsic Mechanisms of Antinociception in Inflammation: Local Opioid Receptors and Beta-Endorphin,” J. Neurosci. 10:1292-1298 (1990), which is hereby incorporated by reference in its entirety). In short, a mobile radiant heat source was focused on the hind paw, and the paw withdrawal latencies were defined as the time taken by the mouse to remove its hind paw from the heat source (max 20 sec to avoid tissue damage). The paw withdrawal was repeated three times for each foot and the average calculated. To avoid conditioning to stimulation a 5 min rest period was interposed between each trial in both thermal and mechanical tests. Behavioral parameters were evaluated prior to intraplantar injection of CFA or nerve ligation (i.e. day 0), and again on day 3-4 in mice receiving the CFA injection, and at day 5-7 in mice with nerve ligation unless otherwise noted. Prior to injection of CCPA, saline, or acupuncture in the Zusanli point, the mice were placed in a restraining under light isoflurane anesthesia (˜1%). The total duration of anesthesia was ˜2 min and mice with inflammatory, neurogenic pain, and their controls were treated similarly. 2-chloro-N6-cyclopentyl-adenosine (CCPA, 0.1 mM, 20 μl) was injected in the Zusanli point ˜5 min before acupuncture. […] The needle was slowly rotated ˜2 time (˜20-30 sec) every 5 min for a total of 30 min during an acupuncture session. A microdialysis probe (MD-2211, Bioanalytical systems, West Lafayette, Ind.) was implanted 1-3 hrs prior to collection of microdialysis samples. The microdialysis probe was implanted in a distance of 0.4-0.6 mm from the Zusanli point. The microdialysis probe was perfused with Ringer's solution at a rate of 1 μl per minute. The microdialysates were collected on ice and the perfusate collected over a 30 min period (30 μl) was immediately frozen at −80° C. until HPLC analysis. Deoxycoformycin was administered in a dose of 50 mg/kg i.p. 30 min prior to acupuncture.

`Nc1ncnc2c1ncn2[C@@H]1O[C@H](COP(=O)(O)CP(=O)(O)O)[C@@H](O)[C@H]1O` [AOPCP] was tested, and the “dephosphorylation of AMP (phosphate production)” value [1] was “did not reduce dephosphorylation of AMP”.

In the case of `O=S(=O)(NCCNC/C=C/c1ccc(Br)cc1)c1cccc2cnccc12` [H-89], the “CFA-induced mechanical pain hypersensitivity, contralateral paw” value [2] is reported as “not the contralateral paw” and the “CFA-induced mechanical pain hypersensitivity, ipsilateral (right leg)” value [2] is reported as “transiently and significantly reduced; also recorded: reduced pain temporarily”.

For `Nc1ncnc2c1ncn2[C@@H]1O[C@H](COP(=O)(O)OP(=O)(O)OP(=O)(O)O)[C@@H](O)[C@H]1O` [ATP], the “rate of phosphate generation” value [1] was 0.428 ± 0.046 µM/mg/min.

`[O]=[Mo](=[O])([O-])[O-]` [molybdate] was tested, and the “dephosphorylation of AMP (phosphate production)” value [1] was “partly suppressed dephosphorylation of AMP”.

For `Nc1ncnc2c1ncn2[C@@H]1O[C@H](COP(=O)(O)O)[C@@H](O)[C@H]1O` [AMP], the “rate of phosphate generation” value [1] was 0.043 ± 0.005 µM/mg/min.
